Results: publication PMC3369547, “Antimicrobial Constituents of Artemisia afra Jacq. ex Willd. against Periodontal Pathogens” (Evidence-based Complementary and Alternative Medicine : eCAM, 2012)
Values after ≈ are worked out from the molar mass of the structure shown. Where two headings read alike, the source gives them in different places. *1 amine or outer side, *2 acyl side, *3 side chain or, on linkers, in order; H or OH if unused. Where a SMILES comes first, the peptide text is derived from it. Bridges are numbered along the chain shown (N, C = ends). Roman numbers before positions name the chains, in order. [ ]: non-standard residue; d: D form. Actinocin(9to1) = Cc1c2oc3c(C)ccc(C(=O)[*:1])c3nc-2c(C(=O)[*:2])c(N)c1=O; NMeV = CN[C@H](C(=O)O)C(C)C; Sar = CNCC(=O)O

Tests used:
[1] = XTT cell proliferation (cytotoxicity) assay on McCoy cells; format: cell-based; settings: mouse
Procedure: Extract and compounds were dissolved in dimethyl sulfoxide (DMSO) and stored at −20°C. All tested compounds were diluted to the final concentration with RPMI 1640 and control cultures were diluted with 0.1% DMSO.
McCoy cells were maintained in monolayer culture at 37°C and 5% CO2 with 10% […] Medium, 10 μg/mL of penicillin, 10 μg/mL, streptomycin, 40 μg/mL gentamycin, and 0.25 μg/mL fungizone.
A microtiter plate with McCoy cells was used for testing all the ethanol extracts for cytotoxicity following the method of [26]. Cytotoxicity was measured by the XTT (sodium 3′-[1-(phenyl amino-carbonyl)-3,4-tetrazolium]-bis-[4-methoxy-6-nitro] benzene sulfonic acid hydrate) method using a cell proliferation kit II (Roche Diagnostics GmbH). Hundred microlitres of McCoy cells (1 × 10^5 mL) was seeded onto a microtiter plate and incubated for 24 h to allow the cells to attach to the bottom of the plate. Dilution series were made of the extract and compound and the various concentrations (400 to 3.1 μg/mL) were added to the microtitre plate and incubated for 48 h. The XTT reagents were added to a final concentration of 0.3 mg/mL and the cells were incubated for 1-2 hours. The positive drug control (Zearalenone) at concentrations range of (10 μg/mL to 0.6 μg/mL) was included in the assay. After incubation the absorbance of the colour was spectrophotometrically quantified using an ELISA plate reader, which measured the optical density at 490 nm with a reference wavelength of 690 nm. The assay was carried out in triplicate.

[2] = test system: Actinomyces naeslundii (ATCC 19039); test: Microdilution MIC/MMC (INT) against Actinomyces naeslundii; format: cell-based; settings: Actinomyces naeslundii, ATCC19039, A.n, Gram +ve, table title says mg/mL; for MBC: MMC in title
Procedure: (§1) The microorganisms used in this study include Actinomyces naeslundii (ATCC 19039), Actinomyces israelii (ATCC 10049), Aggregatibacter actinomycetemcomitans (ATCC 33384), Candida albicans (Med I), Porphyromonas gingivalis (ATCC 33277), Prevotella intermedia (ATCC 25611), and Streptococcus mutans (ATCC 25175). Bacteria were grown in the Casein-peptone Soy Agar medium (CASO) (Merck SA (Pty) Ltd.) under anaerobic conditions in a jar with anaerocult A (Merck SA (Pty) Ltd.), at 37°C for 48 hours. Sabouraud Dextrose Agar medium (SDA) (Merck SA (Pty) Ltd.) was used for the culturing of Candida albicans and incubated at 37°C for 24 hours under aerobic conditions. Subculturing was done once weekly.
(§2) The microdilution technique using 96-well microplates was used to obtain the MIC and MMC values of the crude extract against microorganisms under study. The extract was serially diluted in the 96-well plate with 48 hours old microorganisms (5 × 10^6 CFU/mL) grown at 37°C and the final concentration of extract and positive control (CHX) ranged from 25.0 mg/mL to 0.8 mg/mL. Microbial growth was indicated by adding 40 μL of (0.2 mg/mL) p-iodonitrotetrazolium violet (INT) (Sigma-Aldrich, South Africa) to microplate wells and incubated at 37°C for 48 hours. MIC was defined as the lowest concentration that inhibited the colour change of INT. […] These suspensions were reincubated at 37°C for 48 hours. The MMC was determined as the lowest concentration of extract which inhibited 100% growth of microorganisms.

[3] = test system: Actinomyces israelii (ATCC 10049); test: Microdilution MIC/MMC (INT) against Actinomyces israelii; format: cell-based; settings: Actinomyces israelii, ATCC10049, A.i, Gram +ve, table title says mg/mL; for MBC: MMC in title
Procedure: as §1, §2

[4] = test system: Aggregatibacter actinomycetemcomitans (ATCC 33384); test: Microdilution MIC/MMC (INT) against Aggregatibacter actinomycetemcomitans; format: cell-based; settings: Aggregatibacter actinomycetemcomitans, ATCC33384, A.a, Gram –ve, table title says mg/mL; for MBC: MMC in title
Procedure: as §1, §2

[5] = test system: Prevotella intermedia (ATCC 25611); test: Microdilution MIC/MMC (INT) against Prevotella intermedia; format: cell-based; settings: Prevotella intermedia, ATCC25611, P.i, Gram –ve, table title says mg/mL; for MBC: MMC in title
Procedure: as §1, §2

[6] = test system: Porphyromonas gingivalis (ATCC 33277); test: Microdilution MIC/MMC (INT) against Porphyromonas gingivalis; format: cell-based; settings: Porphyromonas gingivalis, ATCC33277, P.g, Gram –ve, table title says mg/mL; for MBC: MMC in title
Procedure: as §1, §2

Candida albicans (Med I) = test: Microdilution MIC/MMC (INT) against Candida albicans; format: cell-based; settings: C.a, Yeast, table title says mg/mL; for MBC: MMC in title
Procedure: as §1, §2

oral microorganisms = test: Microdilution MIC/MMC, summary over tested microbial species; format: cell-based; settings: against A. israelii and A. naeslundii; read-out: lowest MIC and MMC value
Procedure: as §1, §2

[7] = DPPH free radical scavenging assay; format: biochemical; settings: 37°C, 30 min, 517 nm
Procedure: The free radical scavenging activity was measured using 1, 1 diphenyl-2-picryl-hydraxyl (DPPH) assay with slight modifications. The ethanol extract of A. afra and Vitamin C (positive control) 1000 μg/mL (20 μL) was added in the first three wells of a 96-well plate containing 200 μL of distilled water to make up final concentration of 100 μg/mL and the remaining wells were filled with 110 μL of distilled water. The first raws containing the extract/compounds were serially diluted to wells which contain 110 μL of distilled water, and later, 90 μL of methanolic solution of DPPH ([…]) was added to all the wells. The final concentrations of the extract/compounds ranged from 100 to 0.8 μg/mL. The plates were incubated at 37°C for 30 min and the absorbance was measured at 517 nm using the ELISA plate reader. The percent radical scavenging activity by A. afra was determined by comparison with ethanol (blank). The inhibition ratio was calculated as follows: % DPPH radical-scavenging = (AC-AS)/AC × 100, where AC is absorbance of the control solution (containing only DPPH solution), and AS is the absorbance of the sample in DPPH solution. The percentage of DPPH radical-scavenging was plotted against the plant extract/compounds concentrations (μg/mL) to determine the concentration of extract/compound required to scavenge DPPH by 50% (EC50).

lung cancer (A549) cell = test system: lung cancer (A549) cell; parameters: method as in PMID 15246561; settings: A549 cells; read-out: IC50 cell proliferation; cited from earlier work

Cc1c2oc3c(C)ccc(C(=O)N[C@@H]4C(=O)N[C@H](C(C)C)C(=O)N5CCC[C@H]5C(=O)N(C)CC(=O)N(C)[C@@H](C(C)C)C(=O)O[C@@H]4C)c3nc-2c(C(=O)N[C@@H]2C(=O)N[C@H](C(C)C)C(=O)N3CCC[C@H]3C(=O)N(C)CC(=O)N(C)[C@@H](C(C)C)C(=O)O[C@@H]2C)c(N)c1=O [Actinomycin-D, reference compound] (I: T[dV]P[Sar][NMeV] / II: T[dV]P[Sar][NMeV]; ester I:1-I:C, II:1-II:C; linker I:N-II:N via Actinocin(9to1))
IC50 at 48 h ([1]; McCoy cells, XTT, 48 h, read-out: IC50 (cytotoxicity)): 0.00336 µg/mL (≈ 0.00268 µM)

[H]/N=C(\N/C(=N/[H])NCCCCCCNC(=N)NC(=N)Nc1ccc(Cl)cc1)Nc1ccc(Cl)cc1 [Chlorhexidine, chlorhexidine, reference compound]
MBC [2]: 1600 µg/mL (≈ 3170 µM)
MIC [2]: 1600 µg/mL (≈ 3170 µM)
MBC ([3]; read-out: MBC): 6.3 µg/mL (≈ 12.5 µM)
MIC ([3]; read-out: MIC): 6.3 µg/mL (≈ 12.5 µM)
MBC ([4]; read-out: MBC): 1.6 µg/mL (≈ 3.17 µM)
MIC ([4]; read-out: MIC): 1.6 µg/mL (≈ 3.17 µM)
MBC ([5]; read-out: MBC): 6.3 µg/mL (≈ 12.5 µM)
MIC ([5]; read-out: MIC): 6.3 µg/mL (≈ 12.5 µM)
MBC ([6]; read-out: MBC): 1.6 µg/mL (≈ 3.17 µM)
MIC [6]: 1600 µg/mL (≈ 3170 µM)
MBC (Candida albicans (Med I); read-out: MBC): 1.25 µg/mL (≈ 2.47 µM)
MIC (Candida albicans (Med I); read-out: MIC): 6.3 µg/mL (≈ 12.5 µM)

COc1ccc(-c2cc(=O)c3c(O)cc(O)cc3o2)cc1 [compound 1, acacetin]
MBC [2]: 1000 µg/mL (≈ 3520 µM)
MIC [2]: 1000 µg/mL (≈ 3520 µM)
MBC [3]: 500 µg/mL (≈ 1760 µM)
MIC [3]: 250 µg/mL (≈ 879 µM)
MBC [4]: > 1000 µg/mL
MIC [4]: > 1000 µg/mL
MBC [5]: > 1000 µg/mL
MIC [5]: 1000 µg/mL (≈ 3520 µM)
MBC [6]: > 1000 µg/mL
MIC [6]: 1000 µg/mL (≈ 3520 µM)
MBC (Candida albicans (Med I)): > 1000 µg/mL
MIC (Candida albicans (Med I)): > 1000 µg/mL
MIC (oral microorganisms): 250 µg/mL (≈ 879 µM)
DPPH scavenging IC50 [7]: 2.39 µg/mL
IC50 at 48 h [1]: 35.4 µg/mL (≈ 125 µM)
IC50 (lung cancer (A549) cell): 9.46 µM

C=C1C(=O)OC2C1C(OC(C)=O)CC(=C)C1(O)C=CC(C)(O)C21 (stereo not drawn) [compound 2, 12α,4α-dihydroxybishopsolicepolide]
MBC [2]: 1000 µg/mL (≈ 3120 µM)
MIC [2]: 500 µg/mL (≈ 1560 µM)
MBC [3]: 500 µg/mL (≈ 1560 µM)
MIC [3]: 500 µg/mL (≈ 1560 µM)
MBC [4]: > 1000 µg/mL
MIC [4]: > 1000 µg/mL
MBC ([5]; read-out: MBC): 1 µg/mL (≈ 3.12 µM)
MIC [5]: 1000 µg/mL (≈ 3120 µM)
MBC [6]: > 1000 µg/mL
MIC ([6]; read-out: MIC): > 1 µg/mL
MBC (Candida albicans (Med I)): > 1000 µg/mL
MIC (Candida albicans (Med I)): > 1000 µg/mL
